Measurements as given in ChEMBL document CHEMBL3044584, “4-Sulfenyl-2-carbamoyl-4-isoxazolin-3-ones: biological isostere to 4-chloro-2-carbamoyl-4-isoxazolin-3-ones” (Chem Pharm Bull (Tokyo), 2000).

What was measured:
[1] = test system: Schoenoplectiella juncoides; assay: Pre-emergent herbicidal activity against Schoenoplectiella juncoides assessed as growth inhibition at 25 g/a after 3 weeks in greenhouse conditions; format: functional; conditions: pre-emergence, 504 h, read-out: GI
Echinochloa oryzicola [2] = assay: Pre-emergent herbicidal activity against Echinochloa oryzicola assessed as growth inhibition at 10 g/a after 3 weeks in greenhouse conditions; format: functional; conditions: pre-emergence, 504 h, read-out: GI
Eleocharis acicularis [3] = assay: Pre-emergent herbicidal activity against Eleocharis acicularis assessed as growth inhibition at 25 g/a after 3 weeks in greenhouse conditions; format: functional; conditions: pre-emergence, 504 h, read-out: GI
Eleocharis kuroguwai [4] = assay: Pre-emergent herbicidal activity against Eleocharis kuroguwai assessed as growth inhibition at 25 g/a after 3 weeks in greenhouse conditions; format: functional; conditions: pre-emergence, 504 h, read-out: GI
[5] = test system: Schoenoplectiella juncoides; assay: Pre-emergent herbicidal activity against Schoenoplectiella juncoides assessed as growth inhibition at 10 g/a after 3 weeks in greenhouse conditions; format: functional; conditions: pre-emergence, 504 h, read-out: GI
Lindernia procumbens [6] = assay: Pre-emergent herbicidal activity against Lindernia procumbens assessed as growth inhibition at 10 g/a after 3 weeks in greenhouse conditions; format: functional; conditions: pre-emergence, 504 h, read-out: GI
Cyperus serotinus [7] = assay: Pre-emergent herbicidal activity against Cyperus serotinus assessed as growth inhibition at 10 g/a after 3 weeks in greenhouse conditions; format: functional; conditions: pre-emergence, 504 h, read-out: GI
Lindernia procumbens [8] = assay: Pre-emergent herbicidal activity against Lindernia procumbens assessed as growth inhibition at 25 g/a after 3 weeks in greenhouse conditions; format: functional; conditions: pre-emergence, 504 h, read-out: GI
[9] = Phytotoxicity against Oryza sativa (rice) assessed as growth inhibition at 10 g/a after 3 weeks in greenhouse conditions; format: organism-based; conditions: in vivo, read-out: GI
Eleocharis kuroguwai [10] = assay: Pre-emergent herbicidal activity against Eleocharis kuroguwai assessed as growth inhibition at 10 g/a after 3 weeks in greenhouse conditions; format: functional; conditions: pre-emergence, 504 h, read-out: GI
Echinochloa oryzicola [11] = assay: Pre-emergent herbicidal activity against Echinochloa oryzicola assessed as growth inhibition at 25 g/a after 3 weeks in greenhouse conditions; format: functional; conditions: pre-emergence, 504 h, read-out: GI
Eleocharis acicularis [12] = assay: Pre-emergent herbicidal activity against Eleocharis acicularis assessed as growth inhibition at 10 g/a after 3 weeks in greenhouse conditions; format: functional; conditions: pre-emergence, 504 h, read-out: GI
[13] = Phytotoxicity against Oryza sativa (rice) assessed as growth inhibition at 25 g/a after 3 weeks in greenhouse conditions; format: organism-based; conditions: in vivo, read-out: GI
Cyperus serotinus [14] = assay: Pre-emergent herbicidal activity against Cyperus serotinus assessed as growth inhibition at 25 g/a after 3 weeks in greenhouse conditions; format: functional; conditions: pre-emergence, 504 h, read-out: GI

| Compound | inhibition of growth at 2500 g/ha [1] | inhibition of growth at 1000 g/ha (Echinochloa oryzicola [2]) | inhibition of growth at 2500 g/ha (Eleocharis acicularis [3]) | inhibition of growth at 2500 g/ha (Eleocharis kuroguwai [4]) | inhibition of growth at 1000 g/ha [5] | inhibition of growth at 1000 g/ha (Lindernia procumbens [6]) | inhibition of growth at 1000 g/ha (Cyperus serotinus [7]) | inhibition of growth at 2500 g/ha (Lindernia procumbens [8]) | inhibition at 504 h [9] | inhibition of growth at 1000 g/ha (Eleocharis kuroguwai [10]) | inhibition of growth at 2500 g/ha (Echinochloa oryzicola [11]) | inhibition of growth at 1000 g/ha (Eleocharis acicularis [12]) | inhibition at 504 h [13] | inhibition of growth at 2500 g/ha (Cyperus serotinus [14]) |
| --- | --- | --- | --- | --- | --- | --- | --- | --- | --- | --- | --- | --- | --- | --- |
| CCSc1c(C)on(C(=O)N(c2ccc(Cl)cc2)C(C)C)c1=O | > 91% | > 91% | > 91% | > 91% | > 91% | > 91% | > 91% | > 91% | < 10% | > 91% | > 91% | > 91% | 11% | > 91% |
| CCSc1c(C)on(C(=O)N(c2ccc(F)cc2)C(C)C)c1=O | > 91% | – | > 91% | > 91% | – | – | – | > 91% | – | – | > 91% | – | 51% | > 91% |
| CCSc1c(C)on(C(=O)N(c2ccc(C)cc2)C(C)C)c1=O | – | > 91% | – | – | > 91% | 31% | > 91% | – | < 10% | > 91% | – | 71% | – | – |
| CCSc1c(C)on(C(=O)N(c2ccc(Cl)cc2Cl)C(C)C)c1=O | – | > 91% | – | – | > 91% | 71% | > 91% | – | < 10% | > 91% | – | 71% | – | – |
| CCSc1c(C)on(C(=O)N(c2ccc(C#N)cc2)C(C)C)c1=O | – | > 91% | – | – | > 91% | 71% | > 91% | – | 51% | > 91% | – | 71% | – | – |
| CCSc1c(C)on(C(=O)N(c2cccc([N+](=O)[O-])c2)C(C)C)c1=O | – | > 91% | – | – | > 91% | 71% | > 91% | – | 11% | > 91% | – | 71% | – | – |
| CCSc1c(C)on(C(=O)N(c2cccc(C(F)(F)F)c2)C(C)C)c1=O | – | > 91% | – | – | 71% | 51% | > 91% | – | < 10% | > 91% | – | 31% | – | – |
| CCSc1c(CC)on(C(=O)N(c2ccc(Cl)cc2)C(C)C)c1=O | 71% | > 91% | 71% | > 91% | 51% | 51% | 71% | 71% | < 10% | > 91% | > 91% | 51% | 31% | > 91% |
| CCCSc1c(C)on(C(=O)N(c2ccc(Cl)cc2)C(C)C)c1=O | > 91% | > 91% | > 91% | > 91% | > 91% | 51% | > 91% | > 91% | < 10% | > 91% | > 91% | > 91% | 31% | > 91% |
| CCCSc1c(C)on(C(=O)N(c2ccc(F)cc2F)C(C)C)c1=O | – | > 91% | – | – | > 91% | > 91% | > 91% | – | 11% | > 91% | – | > 91% | – | – |
| Cc1on(C(=O)N(c2ccc(Cl)cc2)C(C)C)c(=O)c1SC(C)C | > 91% | > 91% | 71% | > 91% | > 91% | 51% | > 91% | > 91% | < 10% | > 91% | > 91% | 51% | 31% | > 91% |
| CCc1on(C(=O)N(c2ccc(Cl)cc2)C(C)C)c(=O)c1SC(C)C | > 91% | – | 51% | > 91% | – | – | – | 51% | – | – | > 91% | – | < 10% | > 91% |
| Cc1on(C(=O)N(c2ccc(Cl)cc2)C(C)C)c(=O)c1SC(F)F | – | > 91% | – | – | > 91% | 51% | > 91% | – | 11% | > 91% | – | > 91% | – | – |
| COCCSc1c(C)on(C(=O)N(c2ccc(Cl)cc2)C(C)C)c1=O | > 91% | > 91% | 71% | > 91% | > 91% | 31% | > 91% | 51% | < 10% | > 91% | > 91% | 51% | 11% | > 91% |
| C#CCSc1c(C)on(C(=O)N(c2ccc(Cl)cc2)C(C)C)c1=O | > 91% | > 91% | 51% | > 91% | > 91% | 51% | > 91% | 71% | < 10% | > 91% | > 91% | 51% | 31% | > 91% |
| CCSc1c(C)on(C(=O)N(CC)c2ccc(Cl)cc2)c1=O | – | > 91% | – | – | > 91% | 71% | > 91% | – | 31% | > 91% | – | 71% | – | – |
| CCCN(C(=O)n1oc(C)c(SCC)c1=O)c1ccc(Cl)cc1 | – | > 91% | – | – | > 91% | > 91% | > 91% | – | 11% | > 91% | – | 71% | – | – |
| CCSc1c(C)on(C(=O)N(C)c2ccc(Cl)cc2)c1=O | 71% | – | 71% | > 91% | – | – | – | 71% | – | – | > 91% | – | 11% | > 91% |
